Experimental findings from PubChem BioAssay (NCI) are described below.

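Protocol summary: plate cells (96-well), add compound at 5 concentrations, incubate 48 h, interpolate endpoints linearly. At the TGI there is no net growth.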

What all share (assay): NCI tumour cell line growth inhibition, 48 h
Experiment [1] concerns SK-MEL-2 melanoma.
Experiment [2] has as its system SF-539 CNS.
Experiment [3] deals with UACC-62 melanoma.
Experiment [4] has as its system MDA-N.
The subject of experiment [5] is MOLT-4 leukemia.
The test system of experiment [6] is HCT-116 colon.
Experiment [7] deals with BT-549 breast.
Experiment [8] relates to SK-MEL-5 melanoma.
For experiment [9], the system named is TK-10 renal.
Experiment [10] concerns NCI-H226 lung.
The test system of experiment [11] is UO-31 renal.
The test system of experiment [12] is SNB-75 CNS.
The subject of experiment [13] is HCT-15 colon.
Experiment [14] concerns M14 melanoma.
For experiment [15], the system named is A498 renal.
The test system of experiment [16] is SK-MEL-28 melanoma.
In experiment [17] the test system is HOP-62 NSCLC.
Experiment [18] relates to CAKI-1 renal.
In experiment [19] the test system is RXF 393 renal.
For experiment [20], the system named is HS 578T breast.

Regarding `Cc1c(O)c(OC2OC(CO)C(O)C(O)C2O)cc2c1CC[C@@H]1C2(C)C(=O)C[C@]2(C)[C@@H]([C@@](C)(O)C(=O)CCC(C)(C)O)[C@H](O)C[C@@]12C` (stereo not given in full), the TGI in [1], in experiment [2], in experiment [3], in experiment [4], in experiment [5] and in experiment [6] was > 100 µM each time. In addition, the TGI in experiment [7], in [8], in experiment [9], in [10], in [11] and in experiment [12] was > 100 µM each time. The TGI in experiment [13], in experiment [14], in experiment [15], in experiment [16], in experiment [17] and in experiment [18] was > 100 µM throughout. In addition, the TGI in experiment [19] is > 100 µM.
On to `Cc1cc(C2CC(O)C(CO)O2)c(F)cc1F` (stereo not given), for which the TGI in [2], in experiment [3], in [4], in experiment [5], in [6] and in experiment [7] was > 100 µM in each case. The TGI in [9], in experiment [10], in experiment [11], in experiment [12], in experiment [13] and in experiment [14] was > 100 µM in each case. Moreover, the TGI in [15], in experiment [16], in experiment [17], in experiment [18] and in experiment [19] was > 100 µM each time.
Turning to `O=C(O)c1nc2ccc(C(F)(F)F)cc2nc1NCc1ccc(F)cc1`, the TGI in experiment [1] was 45.1 µM; in experiment [2], 43.5 µM; in experiment [3], 35.1 µM; in [4], 76.9 µM; in [5], 33.2 µM; in experiment [6] it was 29.4 µM. For the same compound, the TGI in experiment [7] is 90.2 µM; in [8], 35.2 µM; in [10], > 100 µM; in experiment [11], 7.39 µM; in experiment [12], 94.9 µM; in experiment [13], 87.5 µM. Moreover, the TGI in experiment [14] was 61.7 µM; in [15], 55.4 µM; in [16], > 100 µM; in experiment [17] it was 46.1 µM; in [18], > 100 µM; in experiment [19], > 100 µM.
As to `Oc1cc(O)cc(-c2nc3cc(F)ccc3s2)c1`, the TGI was 45.1 µM in experiment [1]; 68.3 µM in [2]; 40.7 µM in experiment [3]; > 100 µM in experiment [4]; 65.5 µM in experiment [6]; 53.2 µM in [7]. For the same compound, the TGI in experiment [8] was determined as 37.1 µM; in experiment [9], 76.5 µM; in experiment [10] it was 64.2 µM; in [11], 76.6 µM; in experiment [13], 61.6 µM; in experiment [14] it was 50.1 µM. The TGI turned out to be 47.1 µM in [15], 77 µM in [16], 53.8 µM in experiment [18] and 72.4 µM in experiment [19].
On to `COC(=O)[C@H](Cc1c[nH]c2ccccc12)NC(=O)c1ccc(CNC(=O)/C(C)=C/c2ccccc2)cc1`, for which the TGI in experiment [1] is 27.2 µM; in experiment [2], > 100 µM; in [3], 41.7 µM; in [4], 40.3 µM; in experiment [5], > 100 µM; in experiment [6], > 100 µM. The TGI in experiment [7] was > 100 µM; in experiment [8], 33.2 µM; in [9] it was > 100 µM; in experiment [10], > 100 µM; in experiment [11], > 100 µM; in experiment [12], 32.2 µM. Moreover, the TGI in experiment [13] was > 100 µM; in [14], 30.1 µM; in experiment [15], 64.2 µM; in [16] it was 36.7 µM; in [17], > 100 µM; in experiment [18], > 100 µM. The compound further returned a TGI in experiment [19] of 7.78 µM.
Take `COc1cc(N(CCC#N)CCC#N)ccc1/C(N=Nc1ccccc1C)=N\NC(=O)c1ccc(C)cc1`: the TGI in experiment [1] is > 100 µM; in [3], > 100 µM; in [4] it was 58.8 µM; in [5], > 100 µM; in [6], > 100 µM; in [7], > 100 µM. In addition, the TGI in experiment [8], in experiment [9], in experiment [10], in experiment [11], in experiment [13] and in [14] was > 100 µM throughout. In addition, the TGI in experiment [16], in experiment [17], in [20], in experiment [18] and in experiment [19] was > 100 µM each time.
Take `CCC(=O)O[C@H]1CC[C@H]2[C@@H]3CCC4=C/C(=N/OC(=O)c5cccc6c(=O)c7ccccc7[nH]c56)CC[C@]4(C)[C@H]3CC[C@]12C`: the TGI is 75.5 µM in [1]; 39.3 µM in [2]; > 100 µM in experiment [3]; > 100 µM in experiment [4]; 53.4 µM in [5]; > 100 µM in experiment [7]. The TGI in experiment [8] was > 100 µM; in [9] it was > 100 µM; in [10], > 100 µM; in experiment [11], 62.2 µM; in experiment [12], > 100 µM; in experiment [13], 61.9 µM. For the same compound, the TGI in experiment [14] is 77.7 µM; in experiment [15], 77.7 µM; in experiment [16], > 100 µM; in experiment [17] it was > 100 µM; in [20], > 100 µM; in [19] it was 45.4 µM.
`Cc1cn(C2CC(O)C(CO[Si](C)(C)C(C)(C)C)OC2OC(C)C)c(=O)[nH]c1=O` (stereo not given): the TGI in experiment [1] was > 100 µM; in [2] it was 56.1 µM; in experiment [3], > 100 µM; in experiment [4] it was > 100 µM; in experiment [6], 31.3 µM; in experiment [7], > 100 µM. In addition, the TGI was 93.9 µM in experiment [8]; > 100 µM in [9]; > 100 µM in experiment [10]; > 100 µM in experiment [11]; > 100 µM in experiment [12]; > 100 µM in experiment [13]. Moreover, the TGI in experiment [14] is 92.5 µM; in experiment [16] it was > 100 µM; in experiment [20] it was > 100 µM; in experiment [18] it was > 100 µM; in [19], 88.7 µM.
As for `Cn1c(=O)oc2cc(C(O)CN3CCN(Cc4ccccn4)CC3)c(Cl)cc21` (stereo not given), the TGI in experiment [2], in experiment [3], in experiment [4], in experiment [5], in [6] and in experiment [7] was > 100 µM throughout. Further, the TGI in [9], in experiment [10], in [11], in experiment [12], in experiment [13] and in [14] was > 100 µM in each case. The TGI in experiment [15], in experiment [16], in experiment [17], in experiment [18] and in experiment [19] was > 100 µM throughout.
Turning to `O=S1(=O)Cc2ccc3c4c2-c2c(ccc5ccc(c-4c25)CS(=O)(=O)C3)C1`, the TGI in experiment [1], in experiment [2], in experiment [3], in [4], in experiment [5] and in experiment [6] was > 100 µM in each case. The TGI in experiment [7], in [9], in [10], in experiment [11], in experiment [12] and in experiment [13] was > 100 µM throughout. In addition, the TGI in experiment [14], in [15], in experiment [16], in experiment [17] and in experiment [20] was > 100 µM throughout.
For `COC1=CC2C(c3cc4ccccc4n3S(=O)(=O)c3ccccc3)CC1CN2C(=O)OCc1ccccc1` (stereo not given), the TGI is 54.2 µM in experiment [1]; > 100 µM in experiment [3]; > 100 µM in experiment [4]; > 100 µM in experiment [6]; 75.1 µM in experiment [7]; 58.9 µM in experiment [8]. For the same compound, the TGI is > 100 µM in experiment [9]; > 100 µM in experiment [10]; > 100 µM in experiment [11]; 33.7 µM in [12]; > 100 µM in [13]; 51.2 µM in experiment [14]. Also, the TGI in experiment [17] was > 100 µM; in [20], > 100 µM; in [18] it was > 100 µM; in experiment [19] it was 69.2 µM.
As to `C#CC(C)(C)OC(=O)C(=[N+]=[N-])C(C)=O`, the TGI in experiment [1], in experiment [2], in [3], in [4], in [5] and in [6] was > 10 µM each time. For the same compound, the TGI in experiment [7], in experiment [8], in [9], in experiment [10], in [11] and in experiment [12] was > 10 µM throughout. For the same compound, the TGI in experiment [13], in experiment [14], in experiment [15], in experiment [16], in experiment [17] and in experiment [20] was > 10 µM throughout. Besides, the TGI in experiment [19] was > 10 µM.
